Values after ≈ are worked out from the molar mass of the structure shown. Where two headings read alike, the source gives them in different places.
What was measured:
Format in all cases: cell-based
[1] = system: S. marcescens (AmpC); assay: microbe, parasite or virus in culture; conditions: Serratia marcescens
[2] = system: Morganella morganii (AmpC); assay: microbe, parasite or virus in culture; conditions: Morganella morganii
[3] = system: E. coli (ESBL); assay: microbe, parasite or virus in culture; conditions: Escherichia coli
[4] = system: Enterobacter cloacae (AmpC); assay: microbe, parasite or virus in culture; conditions: Enterobacter cloacae
[5] = system: Klebsiella spp. (WT); assay: microbe, parasite or virus in culture
[6] = system: Klebsiella spp. (KPC); assay: microbe, parasite or virus in culture; conditions: Klebsiella
[7] = system: Citrobacter freundii (AmpC); assay: microbe, parasite or virus in culture; conditions: Citrobacter freundii
[8] = system: E. coli (WT); assay: microbe, parasite or virus in culture; conditions: for MIC90: Escherichia coli
[9] = system: Enterobacter aerogenes (AmpC); assay: microbe, parasite or virus in culture; conditions: Klebsiella aerogenes
[10] = system: Enterobacteriaceae; assay: organism not typed
[11] = system: Klebsiella spp. (ESBL); assay: microbe, parasite or virus in culture; conditions: Klebsiella
[12] = system: Proteus vulgaris (WT); assay: microbe, parasite or virus in culture
[13] = system: Proteus mirabilis (WT); assay: microbe, parasite or virus in culture
[14] = system: P. aeruginosa; assay: In vitro activity against P. aeruginosa clinical isolates
Procedure: GSK2251052 was tested for activity against P. aeruginosa, and its activity was compared to other antibiotics of known activity. The results are shown below in Tables 2a and 2b. Of 2,008 clinical isolates tested (from 2009-2010 subjects, of which 40% were from North America) greater than 90% were susceptible to GSK2251052 based on a potential susceptible breakpoint of ≦4 μg/mL.

[15] = system: Providencia spp.(all); assay: microbe, parasite or virus in culture
[16] = system: Enterobacter aerogenes (WT); assay: microbe, parasite or virus in culture; conditions: for MIC90: Klebsiella aerogenes
[17] = system: Enterobacter cloacae (WT); assay: microbe, parasite or virus in culture; conditions: 202 isolates, read-out: MIC90
[18] = system: E. coli ATCC 25922 wild type and mutants; assay: MIC, wild type and GSK2251052 resistant mutants; conditions: Escherichia coli
Procedure: (§1) Spontaneous Resistance Frequency was determined in vitro for GSK2251052 and the resistance mutants in E. coli ATCC 25922, K. pneumoniae ATCC 13883, and P. aeruginosa ATCC 27853 strains were characterized. GSK2251052 was prepared as described in U.S. Pat. No. 7,816,344 (the entire contents of which are hereby incorporated by reference herein). LB broth, Mueller Hinton II broth (adjusted), and Difco noble agar were obtained from Becton Dickinson (Cockeysville, Md., USA). M9 minimal broth containing 1×M9 salt, 0.5 μg/ML thiamine, 1 mM MgSO4, 0.1 mM CaCl2, 2% glucose, was obtained from Teknova (Hollister, Calif., USA). Antibacterial agents ciprofloxacin, ceftazidime, chloramphenicol, gentamycin, kanamycin, polymixin B, tobramycin and trimethoprim, and amino acids were obtained from Sigma Chemicals (St. Louis, Mo., USA). Strains were obtained from ATCC (Manassas, Va., USA).
(§2) Susceptibility tests were performed following the recommendations for aerobic bacteria (M7-A7) from the Clinical and Laboratories Standards Institute (CLSI).
(§3) Laboratory generated mutants resistant to GSK2251052 contain mutations in the editing domain of LeuRS. Six to ten GSK2251052 resistant colonies of E. coli ATCC 25922, K. pneumoniae ATCC 13883 and P. aeruginosa ATCC 27853 were selected for further analysis and their MICs to GSK2251052 were determined (Table 4-7).

[19] = system: P. aeruginosa ATCC 27853 wild type and mutants; assay: MIC, wild type and GSK2251052 resistant mutants; conditions: Pseudomonas aeruginosa
Procedure: as §1, §2, §3

[20] = system: K. pneumoniae ATCC 13883 wild type and mutants; assay: MIC, wild type and GSK2251052 resistant mutants; conditions: Klebsiella pneumoniae
Procedure: as §1, §2, §3

[21] = system: E. coli ATCC 25922, K. pneumoniae ATCC 13883 and P. aeruginosa ATCC 27853; assay: MIC, three strains and their mutants summarised; conditions: MIC in E. coli, P. aeruginosa and K. pneumoniae mutants versus wild-type
Procedure: as §1, §2, §3
GSK2251052 resistant mutants were not cross-resistant to commercial antibiotics.

[22] = ATCC25922, E wt, read-out: MICs
[23] = ATCC25922, read-out: MICs, mutant E 101
[24] = ATCC25922, read-out: MICs, mutant E 102
[25] = ATCC25922, read-out: MICs, mutant E 107
[26] = ATCC27853, P wt., read-out: MICs
[27] = ATCC27853, read-out: MICs, mutant P 101
[28] = ATCC27853, read-out: MICs, mutant P106
[29] = ATCC27853, read-out: MICs, mutant P108
[30] = ATCC13883, K wt., read-out: MICs
[31] = ATCC13883, read-out: MICs, mutant K 104
[32] = ATCC13883, read-out: MICs, mutant K 105
[33] = ATCC13883, read-out: MICs, mutant K 107
[34] = ATCC13883, read-out: MICs, mutant K 108
[35] = ATCC13883, read-out: MICs, mutant K 110

C[C@@H](O)[C@H]1C(=O)N2C(C(=O)O)=C(SCCN=CN)C[C@H]12 [Imipenem]
MIC90 [1]: 2 µg/mL (≈ 6.68 µM) | MIC90 [2]: 4 µg/mL (≈ 13.4 µM) | MIC90 [3]: 0.5 µg/mL (≈ 1.67 µM) | MIC90 [4]: 1 µg/mL (≈ 3.34 µM) | susceptibility category of MIC90 [5]: *0.25 | MIC90 ([5]; Klebsiella): 0.25 µg/mL (≈ 0.835 µM) | MIC90 [6]: 64 µg/mL (≈ 214 µM) | MIC90 [7]: 1 µg/mL (≈ 3.34 µM) | susceptibility category of MIC90 [8]: *0.25 | MIC90 [8]: 0.25 µg/mL (≈ 0.835 µM) | MIC90 [9]: 2 µg/mL (≈ 6.68 µM) | MIC90 [10]: 2 µg/mL (≈ 6.68 µM) | susceptibility category of MIC90 [10]: **2 | MIC90 [11]: 0.5 µg/mL (≈ 1.67 µM) | susceptibility category of MIC90 [12]: ***4 | MIC90 ([12]; Proteus vulgaris): 4 µg/mL (≈ 13.4 µM) | susceptibility category of MIC90 [13]: ***4 | MIC90 ([13]; Proteus mirabilis): 4 µg/mL (≈ 13.4 µM) | % susceptible [14]: 72.9% | susceptibility category of MIC90 [15]: **2 | MIC90 ([15]; Providencia): 2 µg/mL (≈ 6.68 µM) | susceptibility category of MIC90 [16]: **2 | MIC90 [16]: 2 µg/mL (≈ 6.68 µM) | MIC90 [17]: 1 µg/mL (≈ 3.34 µM)

COc1cc(Cc2cnc(N)nc2N)cc(OC)c1OC [Trimethoprim]
MIC [18, 22]: 0.5 µg/mL (≈ 1.72 µM) | MIC [18, 23]: 1 µg/mL (≈ 3.44 µM) | MIC [18, 24]: 0.5 µg/mL (≈ 1.72 µM) | MIC [18, 25]: 1 µg/mL (≈ 3.44 µM) | MIC [19, 26]: > 64 µg/mL | MIC [19, 27]: > 64 µg/mL | MIC [19, 28]: > 64 µg/mL | MIC [19, 29]: > 64 µg/mL | MIC [20, 30]: 1 µg/mL (≈ 3.44 µM) | MIC [20, 31]: 1 µg/mL (≈ 3.44 µM) | MIC [20, 32]: 1 µg/mL (≈ 3.44 µM) | MIC [20, 33]: 1 µg/mL (≈ 3.44 µM) | MIC [20, 34]: 1 µg/mL (≈ 3.44 µM) | MIC [20, 35]: 1 µg/mL (≈ 3.44 µM) | cross-resistance of GSK2251052 resistant mutants [21]: did not have any significant difference in MIC values than wild-type

CC1(C)S[C@@H]2[C@H](NC(=O)[C@H](N)c3ccccc3)C(=O)N2[C@H]1C(=O)O [Ampicillin]
MIC90 [1]: > 64 µg/mL | MIC90 [2]: > 64 µg/mL | MIC90 [3]: > 64 µg/mL | MIC90 [4]: > 64 µg/mL | MIC90 ([5]; Klebsiella spp. (WT), 159 isolates, read-out: MIC90): > 64 µg/mL | MIC90 [6]: > 64 µg/mL | MIC90 [7]: > 64 µg/mL | MIC90 ([8]; E. coli (WT), 214 isolates, read-out: MIC90): > 64 µg/mL | MIC90 [9]: > 64 µg/mL | MIC90 ([10]; Enterobacteriaceae, 2029 isolates, read-out: MIC90): > 64 µg/mL | MIC90 [11]: > 64 µg/mL | MIC90 ([12]; Proteus vulgaris (WT), 41 isolates, read-out: MIC90): > 64 µg/mL | MIC90 ([13]; Proteus mirabilis (WT), 235 isolates, read-out: MIC90): > 64 µg/mL | MIC90 ([15]; Providencia spp.(all), 68 isolates, read-out: MIC90): > 64 µg/mL | MIC90 ([16]; Enterobacter aerogenes (WT), 199 isolates, read-out: MIC90): > 64 µg/mL | MIC90 [17]: > 64 µg/mL

O=C(N[C@H](CO)[C@H](O)c1ccc([N+](=O)[O-])cc1)C(Cl)Cl [Chloramphenicol]
MIC [18, 22]: 8 µg/mL (≈ 24.8 µM) | MIC [18, 23]: 8 µg/mL (≈ 24.8 µM) | MIC [18, 24]: 8 µg/mL (≈ 24.8 µM) | MIC [18, 25]: 8 µg/mL (≈ 24.8 µM) | MIC [19, 26]: > 64 µg/mL | MIC [19, 27]: > 64 µg/mL | MIC [19, 28]: > 64 µg/mL | MIC [19, 29]: > 64 µg/mL | MIC [20, 30]: 4 µg/mL (≈ 12.4 µM) | MIC [20, 31]: 8 µg/mL (≈ 24.8 µM) | MIC [20, 32]: 8 µg/mL (≈ 24.8 µM) | MIC [20, 33]: 8 µg/mL (≈ 24.8 µM) | MIC [20, 34]: 8 µg/mL (≈ 24.8 µM) | MIC [20, 35]: 8 µg/mL (≈ 24.8 µM) | cross-resistance of GSK2251052 resistant mutants [21]: did not have any significant difference in MIC values than wild-type
